# “Also recorded” adds a separate entry of the source. Where a name gives a salt, the structure may show the parent alone.
# Columns and labels:
# Interleukin-1 = assay: Porcine SMA+FC model: Interleukin-1 concentration in BALF; type: in vivo, pigs; settings: between groups
# From the text: (§4) In addition, the protocol included a 3-day termination period, due to the severity of the ARDS associated with this model and the desire to obtain clinically relevant end-point data on all animals.
# interleukin-6 = assay: Porcine SMA+FC model: interleukin-6 concentration in BALF; parameters: species or system pigs; settings: pig, in vivo
# From the text: (§5) A sepsis-induced ARDS porcine model was developed. […] In addition, the protocol included a 3-day termination period, due to the severity of the ARDS associated with this model and the desire to obtain clinically relevant end-point data on all animals.
# MMP-9 [1] = assay: Rat CLP model: lung tissue MMP-9 level by immunohistochemistry; type: in vivo, Sprague-Dawley rats
# Protocol: (§1) Experimental Protocol: Rats were randomly divided into 5 groups: GROUP 1) Sham CLP+2% solution of carboxymethylcellulose (CMC; vehicle for COL-3) in saline-midline laparotomy with cecum exposed and mesentery sharply incised plus oral gavage at the time of surgery with CMC (n=6); GROUP 2) Sham CLP+COL-3 (Collagenex Pharmaceutical, Newtown, Pa.)-midline laparotomy with cecum exposed and mesentery sharply incised plus oral gavage at the time of surgery with COL-3 (30 mg/kg, n=6); GROUP 3) CLP+CMC-midline laparotomy with CLP plus oral gavage at time of surgery with CMC (n=10); GROUP 4) CLP+COL-3 single dose [SD]-midline laparotomy with CLP plus oral gavage at the time of surgery with COL-3 (30 mg/kg, n=9); GROUP 5) CLP+COL-3 multiple dose [MD]-midline laparotomy with CLP plus oral gavage at the time of surgery and at 24 hours post CLP with COL-3 (30 mg/kg each administration for a total dose of 60 mg/kg, n=15). Rats were followed for 168 hours (7 days) with survival defined as hours post-CLP and survival time of each rat recorded. Rats were sacrificed at 168 hours or immediately following death. At necropsy, the left lung was excised and its bronchus cannulated. The lung was inflated to a pressure of 4 cmH2O with 10% formalin. The cannula was clamped and the lung stored in formalin at room temperature for 24 hours. The tissue was blocked in paraffin and serial sections made for staining with hematoxylin and eosin. Additionally, the remaining paraffin section of fixed lung was used for immunohistochemical determination of MMP-2 and MMP-9.
# (§2) Lung tissue MMP-2 and MMP-9 levels: The levels of alveolar tissue MMP-2 and MMP-9 was assessed by immunohistochemical analysis as described elsewhere. Briefly, four micrometer formalin fixed paraffin sections were treated with xylene to remove paraffin and hydrated. The paraffin sections were treated with 0.4% pepsin for 45 minutes at +37° C. For immunostaining VECTASTAIN™ Rabbit ABC Elite Kit (Vector Laboratories, Burlingame, Calif.) was used according to manufactures instructions. […]
# [2] = tested on: sepsis-induced ARDS (SMA+FC); assay: Porcine fecal clot + SMA clamping sepsis-induced ARDS model: pulmonary function
# [3] = Porcine SMA+FC model: blood COL-3 concentration
# IL-10 = assay: Porcine SMA+FC model: IL-10 concentration in BALF; parameters: species or system pigs; settings: pig, in vivo
# From the text: as §4
# lung tissue [4] = assay: Rat CLP model: lung histology; type: in vivo, Sprague-Dawley rats
# Protocol: (§3) Surgical Procedure: Male Sprague-Dawley rats weighing between 250-300 g were acclimatized to the laboratory environment for one week prior to surgery. Free access to food and water was available for this time period. Rats were anesthetized with intraperitoneal (IP) Ketamine (90 mg/kg)/Xylazine (10 mg/kg ). Sepsis was produced using a modification of the cecal ligation and puncture (CLP) technique described by Chaudry et al. After the abdominal fur was shaved, a 2 cm midline incision was made through the skin and peritoneum. The cecum was identified and withdrawn through the incision. The avascular portion of the mesentery was sharply incised and the cecum was ligated just below the ileocecal valve with a 3-0 silk suture, so that intestinal continuity was maintained. Using an 18 gauge needle, the cecum was perforated in two locations on the antimesenteric surface and was gently compressed until feces were extruded to ensure patency of the holes. The bowel was then returned to the abdomen and the incision was closed in 2 layers using 3-0 Prolene™ for the muscle and 2-0 silk for the skin. Each rat received 10 cc physiological saline subcutaneously immediately after the procedure and at 12 and 24 hours post-surgery. The rats were allowed to recover with water and food provided ad libitum throughout the remainder of the study.
# as §1
# Histology: The lung tissue in each slide preparation was evaluated without knowledge of the treatment group from which it came. The slides were reviewed at low magnification for an overview to exclude sections containing bronchi, connective tissue, large blood vessels, and areas of confluent atelectasis, so that only regions reflecting the degree and stage of parenchymal injury would be evaluated. The areas of the slides which were not excluded were assessed at high magnification (400×) in the following manner. Five high power fields (HPF) were randomly sampled. […] Specifically, alveolar wall thickening, defined as greater than two cell layers thick, was graded as “0” (absent) or “1” (present) in each field. Intra-alveolar edema fluid, defined as homogenous or fibrillar proteinaceous staining within the alveoli, was graded as “0” (absent) or “1” (present) in each field. A total score/5HPF for alveolar wall thickening and intra-alveolar edema fluid was recorded for each animal. […]
# MMP-9 [5] = biological target: T1, MMP-9 (Sus scrofa, UniProt A0A287AZD5); assay: Porcine SMA+FC model: MMP-9 in BALF; parameters: species or system pigs; settings: pig, in vivo
# T1 construct: from tissue; host or cells: pig bronchoalveolar lavage fluid (BALF)
# T1 sequence (A0A287AZD5 19-708): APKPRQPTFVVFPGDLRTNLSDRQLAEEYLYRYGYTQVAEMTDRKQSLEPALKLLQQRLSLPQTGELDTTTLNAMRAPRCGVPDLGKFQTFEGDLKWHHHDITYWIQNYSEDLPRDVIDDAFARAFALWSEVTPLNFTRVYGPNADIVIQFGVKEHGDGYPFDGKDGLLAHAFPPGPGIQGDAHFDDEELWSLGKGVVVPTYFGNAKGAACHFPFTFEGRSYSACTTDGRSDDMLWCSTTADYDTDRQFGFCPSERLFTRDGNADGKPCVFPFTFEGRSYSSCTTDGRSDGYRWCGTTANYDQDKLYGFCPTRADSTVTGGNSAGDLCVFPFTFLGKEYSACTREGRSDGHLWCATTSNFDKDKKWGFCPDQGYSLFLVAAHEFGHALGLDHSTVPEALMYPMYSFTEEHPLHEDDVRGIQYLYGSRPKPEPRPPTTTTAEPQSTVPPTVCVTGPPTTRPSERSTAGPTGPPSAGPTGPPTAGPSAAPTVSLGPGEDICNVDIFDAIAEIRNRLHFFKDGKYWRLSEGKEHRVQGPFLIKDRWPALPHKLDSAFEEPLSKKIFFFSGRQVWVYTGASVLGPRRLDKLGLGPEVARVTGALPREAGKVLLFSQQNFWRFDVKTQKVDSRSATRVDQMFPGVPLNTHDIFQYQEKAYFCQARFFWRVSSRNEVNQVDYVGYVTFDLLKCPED
# From the text: as §5
# [6] = Porcine SMA+FC model: BALF protein concentration; parameters: species or system pigs; settings: pig, in vivo
# From the text: as §4
# IL-8 = assay: Porcine SMA+FC model: IL-8 concentration in BALF; parameters: species or system pigs; settings: pig, in vivo
# From the text: as §5
# lung tissue [7] = assay: Porcine SMA+FC model: morphometric analysis of lung tissue and lung water; type: in vivo, pigs
# From the text: as §5
# MMP-2 = assay: Rat CLP model: lung tissue MMP-2 level by immunohistochemistry; type: in vivo, Sprague-Dawley rats
# Protocol: as §1, §2
# neutrophil elastase [8] = assay: Porcine SMA+FC model: BALF elastase activity; parameters: species or system pigs; settings: pig, in vivo
# From the text: as §5
# pulmonary edema = assay: Rat CLP model: lung water (W/D weight ratio); type: in vivo, Sprague-Dawley rats
# Protocol: as §1
# Lung Water: Representative tissue samples from the right lung were sharply dissected free of nonparenchymal tissue. Samples were placed in a dish and weighed, dried in an oven at 65° C. for 24 h and weighed again. This was repeated until there was no weight change over a 24-h period at which time the samples were determined to be dry. Lung water was expressed as a wet to dry weight ratio (W/D).
# [9] = tested on: sepsis-induced ARDS (cecal ligation and puncture); assay: Rat cecal ligation and puncture (CLP) model of sepsis-induced ARDS: survival; type: in vivo, Sprague-Dawley rats; settings: for Mortality at 168 hours (7 days): CLP+CMC 70%
# Protocol: as §3, §1
# Statistical analysis: Survival rates were evaluated using the Kaplan and Meier method and the significance was determined by the generalized Wilcoxon method. Differences between groups were analyzed by one-way analysis of variance. When the F ratio indicated significance, a Newman-Keul test was used to identify individual differences. A p value less than 0.05 was considered significant. Correlations between COL-3 concentration and survival, COL-3 concentration and MMP-2 and MMP-9 levels and levels of MMP-2 and MMP-9 and survival were determined by simple linear regression analysis.
# neutrophil elastase [10] = settings: LPS-induced acute lung injury, guinea pig; cited from earlier work
# [11] = single dose of two 100 mg minocycline HCl tablets, adult humans; cited from earlier work
# [12] = 250 mg every six hours over a twenty-four hour period; cited from earlier work
# microbes = settings: based on steady-state pharmacokinetics; cited from earlier work
# [13] = CLP+COL-3 (MD) vs CLP+CMC and CLP+COL-3 (SD)
# [14] = COL-3 administration, dose dependent fashion, vs CLP+CMC
# [15] = morphometric analysis of lung tissue
smiles,measurement,setting,value
"NC(=O)C1=C(O)C[C@@H]2C[C@@H]3Cc4cccc(O)c4C(=O)C3=C(O)[C@]2(O)C1=O [COL-3, 6-demethyl-6-deoxy-4-de(dimethylamino)tetracycline]",Interleukin-1 concentration,Interleukin-1,not significantly different
same,Increase in interleukin-6 concentration in BALF,interleukin-6,blocked the increase
same,Lung tissue level of MMP-9,MMP-9 [1]; [13],further reduced the level of MMP-9 to Sham CLP levels; also recorded: significantly reduced
same,Lung tissue level of MMP-9,MMP-9 [1]; CLP+COL-3 (SD) vs CLP+CMC,"reduced MMP-9 levels compared to the CLP+CMC group, but was not statistically significant"
same,Alveolar tissue level of MMP-9,MMP-9 [1]; [14],significantly reduced
same,Improvement in A-a gradient,[2]; SMA+FC+COL-3 vs SMA+FC group,64%
same,Improvement in lung plateau pressure,[2]; SMA+FC+COL-3 vs SMA+FC group,52%
same,Improvement in pulmonary compliance,[2]; SMA+FC+COL-3 vs SMA+FC group,344%
same,Increase in PaO2/FiO2 ratio,[2]; SMA+FC+COL-3 vs SMA+FC group,204%
same,Reduction in pulmonary shunt fraction,[2]; SMA+FC+COL-3 vs SMA+FC group,80%
same,Development of ARDS,"[2]; lung compliance, PaO2/FiO2 ratio, shunt fraction, lung water, histology not significantly different from Control Group",completely prevented
same,Blood COL-3 concentration,[3]; Day 1,3.1 ± 0.3 µg/mL
same,Blood COL-3 concentration,[3]; Day 2,4.9 ± 1.0 µg/mL
same,Blood COL-3 concentration,[3]; Day 3,3.1 ± 1.0 µg/mL
same,Increase in IL-10 concentration in BALF,IL-10,blocked the increase
same,Number of neutrophils sequestered in the lung,lung tissue [4]; CLP+COL-3 (MD) vs CLP+CMC,no significant differences
same,Number of thickened alveolar walls,lung tissue [4]; CLP+COL-3 (MD) vs CLP+CMC,significantly reduced
same,Intra-alveolar edema fluid,"lung tissue [4]; CLP+COL-3 (MD), second dose, vs CLP+CMC",significant reduction
same,Intra-alveolar edema fluid,lung tissue [4]; CLP+COL-3 (SD) vs CLP+CMC,"reduced in the CLP+COL-3 (SD) group as compared to the CLP+CMC group, but was not statistically significant"
same,Number of neutrophils sequestered in the lung,lung tissue [4]; CLP+COL-3 (SD) vs CLP+CMC,no significant differences
same,Number of thickened alveolar walls,lung tissue [4]; CLP+COL-3 (SD) vs CLP+CMC,significantly reduced
same,MMP-9 in BALF,MMP-9 [5],inhibited
same,Decrease in bronchoalveolarlavage fluid (BALF) protein concentration,[6],51%
same,Increase in IL-8 concentration in BALF,IL-8,blocked the increase
same,Number of neutrophils sequestered in the lung,"lung tissue [7]; SMA+FC and SMA+FC+COL-3 groups vs Control Group, morphometric assessment",increased equally
same,Decrease in hyline membranes,lung tissue [7]; [15],94%
same,Reduction in alveolar edema,lung tissue [7]; [15],62%
same,Decrease in lung water,"lung tissue [7]; pig, in vivo",41%
same,Lung tissue level of MMP-2,MMP-2; [13],further reduction
same,Lung tissue level of MMP-2,MMP-2; CLP+COL-3 (SD) vs CLP+CMC,significantly reduced
same,Alveolar tissue level of MMP-2,MMP-2; [14],significantly reduced
same,Neutrophil elastase in BALF,neutrophil elastase [8],inhibited
same,Reduction in BALF elastase activity,neutrophil elastase [8],87%
same,Lung water (W/D weight ratio),"pulmonary edema; CLP+COL-3 (MD), second dose at 24 hours post CLP",reduced edema to Sham CLP levels; also recorded: further reduced
same,Lung water (W/D weight ratio),pulmonary edema; CLP+COL-3 (SD) vs CLP+CMC,significantly reduced
same,Lung water or edema,"pulmonary edema; COL-3 administration, dose dependent manner, vs CLP+CMC",significantly reduced
same,Seven day survival rate,"[9]; CLP+COL-3 (MD), repeat dose at 24 hours post CLP, p<0.05 vs CLP+CMC and CLP+COL-3 (SD)",enhanced survival benefit
same,Mortality at 168 hours (7 days),[9]; CLP+COL-3 (MD): 30 mg/kg at surgery and at 24 hours post CLP,33%
same,Seven day survival rate,"[9]; CLP+COL-3 (SD) vs CLP+CMC, p<0.05",significant improvement in survival
same,Mortality at 168 hours (7 days),[9]; CLP+COL-3 (SD): single prophylactic dose 30 mg/kg oral gavage at surgery,54%
same,Survival with delayed administration,[9]; COL-3 given as much as 12 hours following CLP,significantly improve survival
same,Survival of sham animals,"[9]; Sham CLP+COL-3, 30 mg/kg oral gavage, 168 hours",all survived
"CC(C)(C)C(=O)Oc1ccc(S(=O)(=O)Nc2ccccc2C(=O)NCC(=O)O)cc1 [ONO-5046, N-[2-[4-(2,2-dimethylpropionyloxy)-phenylsulfonylamino]benzoyl]aminoacetic acid]",Neutrophil elastase activity,neutrophil elastase [10],inhibits
CN(C)c1ccc(O)c2c1C[C@H]1C[C@H]3[C@H](N(C)C)C(O)=C(C(N)=O)C(=O)[C@@]3(O)C(O)=C1C2=O [minocycline HCl],Average minocycline serum level,[11],2.24 µg/mL
CN(C)[C@@H]1C(O)=C(C(N)=O)C(=O)[C@@]2(O)C(O)=C3C(=O)c4c(O)cccc4[C@@](C)(O)[C@H]3C[C@@H]12 [tetracycline HCl],Peak plasma concentration,[12],approximately 3 μg/ml
"CN(C)[C@@H]1C(O)=C(C(N)=O)C(=O)[C@@]2(O)C(O)=C3C(=O)c4c(O)cccc4[C@@](C)(O)[C@H]3C[C@@H]12 [tetracycline, Tetracycline]",Plasma antibiotic threshold level,microbes,0.5 µg/mL
